# How the values were obtained:
# Settings in all cases: compound at 10 μM
# [1] = target: T1, Human μ-opioid (MOP) (Homo sapiens, UniProt P35372); assay: Radioligand binding, human μ-opioid (MOP) membranes, FlashPlate, [3H]-Naloxone
# T1 construct: purchased Perkin Elmer Biosignal
# Method in brief: (§1)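 Cloned human receptor membranes were coated onto FlashPlate wells and incubated with radioligand and compound (added from a 0.5 mM DMSO daughter plate) for 1 hour at room temperature in the dark. Scintillation counting gave percent inhibition, with DMSO defining total and reference ligand defining non-specific binding.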
# [2] = target: T2, Human Melanocortin (MC4) (Homo sapiens, UniProt P32245); assay: Radioligand binding, human melanocortin MC4 membranes, FlashPlate, [125I]-NDP-αMSH
# T2 construct: purchased Perkin Elmer Biosignal
# T2 sequence (P32245 whole entry): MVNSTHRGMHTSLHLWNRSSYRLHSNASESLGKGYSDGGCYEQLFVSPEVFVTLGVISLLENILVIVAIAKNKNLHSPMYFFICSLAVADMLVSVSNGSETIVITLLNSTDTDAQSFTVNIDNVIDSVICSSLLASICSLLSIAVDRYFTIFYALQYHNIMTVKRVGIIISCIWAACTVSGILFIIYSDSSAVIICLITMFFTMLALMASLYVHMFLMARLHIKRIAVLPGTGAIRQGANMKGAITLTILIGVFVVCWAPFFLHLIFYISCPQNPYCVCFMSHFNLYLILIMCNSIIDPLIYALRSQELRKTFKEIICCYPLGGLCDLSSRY
# Method in brief: as §1
# [3] = target: T3, Human Melanocortin (MC3) (Homo sapiens, UniProt P41968); assay: Radioligand binding, human melanocortin MC3 membranes, FlashPlate, [125I]-NDP-αMSH
# T3 construct: purchased Perkin Elmer Biosignal
# T3 sequence (P41968 whole entry): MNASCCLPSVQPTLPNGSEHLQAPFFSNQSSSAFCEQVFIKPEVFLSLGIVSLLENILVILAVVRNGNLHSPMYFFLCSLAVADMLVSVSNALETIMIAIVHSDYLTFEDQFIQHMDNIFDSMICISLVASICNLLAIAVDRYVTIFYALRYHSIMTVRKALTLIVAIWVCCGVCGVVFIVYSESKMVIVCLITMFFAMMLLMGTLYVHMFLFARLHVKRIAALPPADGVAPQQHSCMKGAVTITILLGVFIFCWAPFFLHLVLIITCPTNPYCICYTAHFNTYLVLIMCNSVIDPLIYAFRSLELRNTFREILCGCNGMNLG
# Method in brief: as §1
# [4] = target: T4, Human neurokinin (NK1) (Homo sapiens, UniProt P25103); assay: Radioligand binding, human neurokinin NK1 membranes, filtration, [125I]-Substance P
# T4 construct: purchased Perkin Elmer Biosignal
# T4 sequence (P25103 whole entry): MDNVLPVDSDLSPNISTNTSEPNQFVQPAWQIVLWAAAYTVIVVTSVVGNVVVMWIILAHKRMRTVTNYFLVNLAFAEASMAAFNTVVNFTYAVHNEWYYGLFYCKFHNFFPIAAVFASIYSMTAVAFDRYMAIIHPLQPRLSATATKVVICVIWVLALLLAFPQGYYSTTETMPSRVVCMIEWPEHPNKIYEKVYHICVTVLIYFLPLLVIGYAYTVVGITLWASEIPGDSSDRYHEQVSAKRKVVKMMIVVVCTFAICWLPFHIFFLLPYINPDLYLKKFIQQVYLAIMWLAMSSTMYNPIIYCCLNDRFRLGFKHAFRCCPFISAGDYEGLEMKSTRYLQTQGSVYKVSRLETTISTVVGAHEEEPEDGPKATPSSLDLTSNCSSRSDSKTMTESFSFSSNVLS
# Method in brief: (§2)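 Membranes from cloned human receptors were incubated with compound and radioligand for 1 hour at room temperature. Bound ligand was collected on 0.3% PEI-soaked filters, washed with cold 50 mM Tris-HCl pH 7.4, and counted by scintillation. Percent inhibition was computed against DMSO totals and reference-ligand nonspecific wells.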
# [5] = target: T5, Human neuropeptide Y (NPY-Y1) (Homo sapiens, UniProt P25929); assay: Radioligand binding, human neuropeptide Y NPY-Y1 membranes, FlashPlate, [125I]-PYY
# T5 construct: purchased Perkin Elmer Biosignal
# T5 sequence (P25929 1-384): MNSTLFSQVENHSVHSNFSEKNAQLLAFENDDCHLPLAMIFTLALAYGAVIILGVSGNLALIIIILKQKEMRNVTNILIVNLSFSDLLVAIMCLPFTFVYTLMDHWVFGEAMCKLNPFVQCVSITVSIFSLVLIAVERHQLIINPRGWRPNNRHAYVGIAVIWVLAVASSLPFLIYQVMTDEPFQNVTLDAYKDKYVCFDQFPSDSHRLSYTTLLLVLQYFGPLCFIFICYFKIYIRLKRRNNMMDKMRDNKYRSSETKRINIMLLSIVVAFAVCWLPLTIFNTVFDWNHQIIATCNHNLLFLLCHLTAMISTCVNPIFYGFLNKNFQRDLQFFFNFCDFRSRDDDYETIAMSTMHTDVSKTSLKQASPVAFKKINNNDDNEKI
# Method in brief: as §1
# [6] = target: T6, Mouse urotensin (mUR2) (Mus musculus, UniProt Q8VIH9); assay: Radioligand binding, mouse urotensin mUR2 membranes, FlashPlate, [125I]-Urotensin II
# T6 construct: purchased Perkin Elmer Biosignal
# T6 sequence (Q8VIH9 1-385): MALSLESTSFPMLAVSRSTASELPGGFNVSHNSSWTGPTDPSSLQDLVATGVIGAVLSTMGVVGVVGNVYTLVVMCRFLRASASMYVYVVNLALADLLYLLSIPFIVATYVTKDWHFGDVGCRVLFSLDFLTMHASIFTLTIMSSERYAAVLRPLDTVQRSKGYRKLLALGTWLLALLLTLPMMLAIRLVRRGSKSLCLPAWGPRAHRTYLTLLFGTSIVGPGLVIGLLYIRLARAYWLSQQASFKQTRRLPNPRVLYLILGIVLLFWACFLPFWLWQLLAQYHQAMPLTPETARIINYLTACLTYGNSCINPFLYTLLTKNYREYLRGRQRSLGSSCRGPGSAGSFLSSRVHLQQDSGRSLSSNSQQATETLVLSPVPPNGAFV
# Method in brief: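 Cloned mouse urotensin (mUR2) receptor membranes from Perkin Elmer Biosignal were immobilized in FlashPlate microplates using a proprietary coating. Each well got 19.5 μl buffer, then 0.5 μl of DMSO, reference ligand, or compound. Adding 5 μl of [125I]-Urotensin II, diluted to 5× final concentration in binding buffer, started binding. Plates were sealed with TopSeal-A and incubated 1 hour at room temperature in the dark. Wells were counted for 30 seconds each on a TopCount after a 60-second delay, and percentage inhibition was calculated.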
# [7] = target: T7, Human δ-opioid (DOP) (Homo sapiens, UniProt P41143); assay: Radioligand binding, human δ-opioid (DOP) membranes, FlashPlate, [3H]-Bremazocine
# T7 construct: purchased Perkin Elmer Biosignal
# T7 sequence (P41143 whole entry): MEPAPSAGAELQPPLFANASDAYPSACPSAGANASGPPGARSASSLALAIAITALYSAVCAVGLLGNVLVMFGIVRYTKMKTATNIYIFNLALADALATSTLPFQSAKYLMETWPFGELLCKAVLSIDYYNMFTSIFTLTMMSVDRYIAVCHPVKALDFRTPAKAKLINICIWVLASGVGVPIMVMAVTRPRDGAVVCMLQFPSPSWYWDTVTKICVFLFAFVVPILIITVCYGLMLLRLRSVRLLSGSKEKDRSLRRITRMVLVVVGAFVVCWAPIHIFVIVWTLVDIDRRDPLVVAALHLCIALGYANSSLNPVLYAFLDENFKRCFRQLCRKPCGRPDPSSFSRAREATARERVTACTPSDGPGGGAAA
# Method in brief: as §1
# [8] = target: T8, Human opioid (ORL1) (Homo sapiens, UniProt P41146); assay: Radioligand binding, human opioid ORL1 membranes, FlashPlate, [125I]-Nociceptin
# T8 construct: purchased Perkin Elmer Biosignal
# T8 sequence (P41146 whole entry): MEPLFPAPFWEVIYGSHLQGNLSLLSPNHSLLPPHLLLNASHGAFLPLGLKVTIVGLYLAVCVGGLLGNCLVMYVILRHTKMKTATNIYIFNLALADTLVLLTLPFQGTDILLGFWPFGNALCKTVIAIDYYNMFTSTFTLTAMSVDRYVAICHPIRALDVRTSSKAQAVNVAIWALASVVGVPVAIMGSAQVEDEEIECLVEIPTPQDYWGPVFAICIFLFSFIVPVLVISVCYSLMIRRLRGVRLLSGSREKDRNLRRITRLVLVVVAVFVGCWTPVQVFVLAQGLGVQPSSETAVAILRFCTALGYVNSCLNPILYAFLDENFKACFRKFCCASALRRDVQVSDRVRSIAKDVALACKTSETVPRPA
# Method in brief: as §1
# [9] = target: T9, Human melanin-concentrating hormone (MCH1) (Homo sapiens, UniProt Q99705); assay: Radioligand binding, human melanin-concentrating hormone MCH1 membranes, FlashPlate, [125I]-S36057
# T9 construct: purchased Perkin Elmer Biosignal
# T9 sequence (Q99705 whole entry): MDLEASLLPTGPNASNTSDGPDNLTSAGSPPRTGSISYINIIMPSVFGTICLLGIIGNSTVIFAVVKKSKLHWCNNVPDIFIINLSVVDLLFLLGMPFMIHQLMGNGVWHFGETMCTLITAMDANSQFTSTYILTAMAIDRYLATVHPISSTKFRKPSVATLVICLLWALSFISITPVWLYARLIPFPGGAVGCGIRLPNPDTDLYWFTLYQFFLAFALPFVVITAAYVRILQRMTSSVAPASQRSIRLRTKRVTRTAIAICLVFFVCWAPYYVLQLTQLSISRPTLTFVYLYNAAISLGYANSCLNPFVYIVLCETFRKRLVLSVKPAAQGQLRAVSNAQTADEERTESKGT
# Method in brief: as §1
# [10] = target: T10, Human melanocortin (MC5) (Homo sapiens, UniProt P33032); assay: Radioligand binding, human melanocortin MC5 membranes, FlashPlate, [125I]-NDP-αMSH
# T10 construct: purchased Perkin Elmer Biosignal
# T10 sequence (P33032 whole entry): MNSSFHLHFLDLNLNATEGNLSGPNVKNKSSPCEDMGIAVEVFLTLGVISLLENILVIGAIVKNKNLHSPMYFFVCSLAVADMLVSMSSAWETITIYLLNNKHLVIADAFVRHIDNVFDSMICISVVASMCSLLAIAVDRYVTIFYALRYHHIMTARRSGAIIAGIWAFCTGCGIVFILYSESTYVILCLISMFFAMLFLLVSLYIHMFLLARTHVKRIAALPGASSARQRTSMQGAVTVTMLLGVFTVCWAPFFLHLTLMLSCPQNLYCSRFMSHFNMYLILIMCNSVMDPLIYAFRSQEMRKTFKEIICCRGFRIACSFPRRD
# Method in brief: as §1
# [11] = target: T11, Human κ-Opioid (KOP) (Homo sapiens, UniProt P41145); assay: Radioligand binding, human κ-opioid (KOP) membranes, filtration, [3H]-Diprenorphine
# T11 construct: purchased Perkin Elmer Biosignal
# T11 sequence (P41145 whole entry): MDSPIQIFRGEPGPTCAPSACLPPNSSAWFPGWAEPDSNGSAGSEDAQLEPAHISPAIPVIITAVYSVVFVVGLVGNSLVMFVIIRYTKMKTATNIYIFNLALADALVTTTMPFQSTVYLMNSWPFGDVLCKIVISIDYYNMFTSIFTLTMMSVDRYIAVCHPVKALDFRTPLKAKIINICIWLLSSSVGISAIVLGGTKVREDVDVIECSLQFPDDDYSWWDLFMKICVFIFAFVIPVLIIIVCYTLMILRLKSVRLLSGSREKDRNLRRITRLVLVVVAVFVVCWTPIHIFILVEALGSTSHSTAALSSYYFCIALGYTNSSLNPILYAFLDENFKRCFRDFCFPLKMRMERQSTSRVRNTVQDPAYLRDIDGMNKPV
# Method in brief: as §2
# T1 sequence (P35372 whole entry): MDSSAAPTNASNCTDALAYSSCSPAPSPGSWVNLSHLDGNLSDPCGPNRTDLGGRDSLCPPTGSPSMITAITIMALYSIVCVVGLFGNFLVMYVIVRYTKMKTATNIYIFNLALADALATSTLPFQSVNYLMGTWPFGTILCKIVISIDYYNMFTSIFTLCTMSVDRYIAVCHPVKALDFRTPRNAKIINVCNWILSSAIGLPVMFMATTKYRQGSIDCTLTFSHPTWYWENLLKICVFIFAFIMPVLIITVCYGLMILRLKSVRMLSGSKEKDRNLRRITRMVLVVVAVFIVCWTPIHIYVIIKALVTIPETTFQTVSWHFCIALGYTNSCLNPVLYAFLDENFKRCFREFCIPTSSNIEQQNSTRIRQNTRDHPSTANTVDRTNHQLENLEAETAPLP
structure (smiles),measurement,setting,value
CSC1OC(COCc2ccc(-c3ccccc3)cc2)C(O)C(OCc2ccccc2)C1NC(=O)CCNC(=N)N (stereo not shown) [compound 257],A7: inhibition of radioligand binding,"[1]; [3H]-Naloxone, FlashPlate",− (“−” indicates less than 50% inhibition at 10 μM)
same,A4: inhibition of radioligand binding,"[2]; [125I]-NDP-αMSH, FlashPlate",+ (“+” indicates greater than 50% inhibition at 10 μM)
same,A3: inhibition of radioligand binding,"[3]; [125I]-NDP-αMSH, FlashPlate",− (“−” indicates less than 50% inhibition at 10 μM)
same,A8: inhibition of radioligand binding,"[4]; [125I]-Substance P, filtration",+ (“+” indicates greater than 50% inhibition at 10 μM)
same,A9: inhibition of radioligand binding,"[5]; [125I]-PYY, FlashPlate",− (“−” indicates less than 50% inhibition at 10 μM)
same,A11: inhibition of radioligand binding,"[6]; [125I]-Urotensin II, FlashPlate",− (“−” indicates less than 50% inhibition at 10 μM)
same,A1: inhibition of radioligand binding,"[7]; [3H]-Bremazocine, FlashPlate",− (“−” indicates less than 50% inhibition at 10 μM)
same,A10: inhibition of radioligand binding,"[8]; [125I]-Nociceptin, FlashPlate",− (“−” indicates less than 50% inhibition at 10 μM)
same,A6: inhibition of radioligand binding,"[9]; [125I]-S36057, FlashPlate",− (“−” indicates less than 50% inhibition at 10 μM)
same,A5: inhibition of radioligand binding,"[10]; [125I]-NDP-αMSH, FlashPlate",− (“−” indicates less than 50% inhibition at 10 μM)
same,A2: inhibition of radioligand binding,"[11]; [3H]-Diprenorphine, filtration",− (“−” indicates less than 50% inhibition at 10 μM)
COC[C@H]1OC(OCc2ccc(-c3ccccc3)cc2)[C@H](NC(=O)CCCNC(=N)N)[C@@H](OCc2ccccc2)[C@@H]1O (stereo partly shown) [compound 9],A7 radioligand binding inhibition,[1]; human μ-opioid (MOP) membranes,− (“−” indicates less than 50% inhibition at 10 μM)
same,A4 radioligand binding inhibition,[2]; human melanocortin MC4 membranes,− (“−” indicates less than 50% inhibition at 10 μM)
same,A3 radioligand binding inhibition,[3]; human melanocortin MC3 membranes,− (“−” indicates less than 50% inhibition at 10 μM)
same,A8 radioligand binding inhibition,[4]; human neurokinin NK1 membranes,+ (“+” indicates greater than 50% inhibition at 10 μM)
same,A9 radioligand binding inhibition,[5]; human NPY-Y1 membranes,− (“−” indicates less than 50% inhibition at 10 μM)
same,A11 radioligand binding inhibition,[6]; mouse urotensin mUR2 membranes,− (“−” indicates less than 50% inhibition at 10 μM)
same,A1 radioligand binding inhibition,[7]; human δ-opioid (DOP) membranes,− (“−” indicates less than 50% inhibition at 10 μM)
same,A10 radioligand binding inhibition,[8]; human ORL1 membranes,− (“−” indicates less than 50% inhibition at 10 μM)
same,A6 radioligand binding inhibition,"[9]; human MCH1 membranes, 10 µM",− (“−” indicates less than 50% inhibition at 10 μM)
same,A5 radioligand binding inhibition,[10]; human melanocortin MC5 membranes,− (“−” indicates less than 50% inhibition at 10 μM)
same,A2 radioligand binding inhibition,[11]; human κ-opioid (KOP) membranes,− (“−” indicates less than 50% inhibition at 10 μM)
CO[C@H]1[C@H](O)[C@@H](COCc2ccc3ccccc3c2)OC(OCc2cccc(O)c2)[C@@H]1NC(=O)CCNC(=N)N (stereo partly shown) [compound 166],"A7 radioligand binding, percentage inhibition",[1]; [3H]-Naloxone,− (“−” indicates less than 50% inhibition at 10 μM)
same,"A4 radioligand binding, percentage inhibition",[2]; [125I]-NDP-αMSH,+ (“+” indicates greater than 50% inhibition at 10 μM)
same,"A3 radioligand binding, percentage inhibition",[3]; [125I]-NDP-αMSH,− (“−” indicates less than 50% inhibition at 10 μM)
same,"A8 radioligand binding, percentage inhibition",[4]; [125I]-Substance P,+ (“+” indicates greater than 50% inhibition at 10 μM)
same,"A9 radioligand binding, percentage inhibition",[5]; [125I]-PYY,− (“−” indicates less than 50% inhibition at 10 μM)
same,"A11 radioligand binding, percentage inhibition",[6]; [125I]-Urotensin II,− (“−” indicates less than 50% inhibition at 10 μM)
same,"A1 radioligand binding, percentage inhibition",[7]; [3H]-Bremazocine,− (“−” indicates less than 50% inhibition at 10 μM)
same,"A10 radioligand binding, percentage inhibition",[8]; [125I]-Nociceptin,− (“−” indicates less than 50% inhibition at 10 μM)
same,"A6 radioligand binding, percentage inhibition",[9]; [125I]-S36057,− (“−” indicates less than 50% inhibition at 10 μM)
same,"A5 radioligand binding, percentage inhibition",[10]; [125I]-NDP-αMSH,+ (“+” indicates greater than 50% inhibition at 10 μM)
same,"A2 radioligand binding, percentage inhibition",[11]; [3H]-Diprenorphine,− (“−” indicates less than 50% inhibition at 10 μM)
N=C(N)NCCC(=O)N[C@H]1C(OCc2ccc(Cl)cc2)O[C@H](COCc2ccc3ccccc3c2)[C@@H](O)[C@@H]1OCc1ccc(-c2ccccc2)cc1 (stereo partly shown) [compound 534],"A7: inhibition of radioligand binding, human μ-opioid (MOP)",[1]; [3H]-Naloxone,− (“−” indicates less than 50% inhibition at 10 μM)
same,"A4: inhibition of radioligand binding, human melanocortin (MC4)",[2]; [125I]-NDP-αMSH,+ (“+” indicates greater than 50% inhibition at 10 μM)
same,"A3: inhibition of radioligand binding, human melanocortin (MC3)",[3]; [125I]-NDP-αMSH,+ (“+” indicates greater than 50% inhibition at 10 μM)
same,"A8: inhibition of radioligand binding, human neurokinin (NK1)",[4]; [125I]-Substance P,+ (“+” indicates greater than 50% inhibition at 10 μM)
same,"A9: inhibition of radioligand binding, human neuropeptide Y (NPY-Y1)",[5]; [125I]-PYY,− (“−” indicates less than 50% inhibition at 10 μM)
same,"A11: inhibition of radioligand binding, mouse urotensin (mUR2)",[6]; [125I]-Urotensin II,− (“−” indicates less than 50% inhibition at 10 μM)
same,"A1: inhibition of radioligand binding, human δ-opioid (DOP)",[7]; [3H]-Bremazocine,− (“−” indicates less than 50% inhibition at 10 μM)
same,"A10: inhibition of radioligand binding, human opioid (ORL1)",[8]; [125I]-Nociceptin,− (“−” indicates less than 50% inhibition at 10 μM)
same,"A6: inhibition of radioligand binding, human melanin-concentrating hormone (MCH1)",[9]; [125I]-S36057,+ (“+” indicates greater than 50% inhibition at 10 μM)
same,"A5: inhibition of radioligand binding, human melanocortin (MC5)",[10]; [125I]-NDP-αMSH,+ (“+” indicates greater than 50% inhibition at 10 μM)
same,"A2: inhibition of radioligand binding, human κ-opioid (KOP)",[11]; [3H]-Diprenorphine,− (“−” indicates less than 50% inhibition at 10 μM)
CSC1OC(COCc2ccc(-c3ccccc3)cc2)C(O)C(OCc2ccc3ccccc3c2)C1NC(=O)CCN (stereo not shown) [compound 313],"A7: inhibition of radioligand binding, human μ-opioid (MOP)",[1]; [3H]-Naloxone,− (“−” indicates less than 50% inhibition at 10 μM)
same,"A4: inhibition of radioligand binding, human melanocortin (MC4)",[2]; [125I]-NDP-αMSH,− (“−” indicates less than 50% inhibition at 10 μM)
same,"A3: inhibition of radioligand binding, human melanocortin (MC3)",[3]; [125I]-NDP-αMSH,− (“−” indicates less than 50% inhibition at 10 μM)
same,"A8: inhibition of radioligand binding, human neurokinin (NK1)",[4]; [125I]-Substance P,+ (“+” indicates greater than 50% inhibition at 10 μM)
same,"A9: inhibition of radioligand binding, human neuropeptide Y (NPY-Y1)",[5]; [125I]-PYY,− (“−” indicates less than 50% inhibition at 10 μM)
same,"A11: inhibition of radioligand binding, mouse urotensin (mUR2)",[6]; [125I]-Urotensin II,− (“−” indicates less than 50% inhibition at 10 μM)
same,"A1: inhibition of radioligand binding, human δ-opioid (DOP)",[7]; [3H]-Bremazocine,− (“−” indicates less than 50% inhibition at 10 μM)
same,"A10: inhibition of radioligand binding, human opioid (ORL1)",[8]; [125I]-Nociceptin,− (“−” indicates less than 50% inhibition at 10 μM)
same,"A6: inhibition of radioligand binding, human melanin-concentrating hormone (MCH1)",[9]; [125I]-S36057,− (“−” indicates less than 50% inhibition at 10 μM)
same,"A5: inhibition of radioligand binding, human melanocortin (MC5)",[10]; [125I]-NDP-αMSH,+ (“+” indicates greater than 50% inhibition at 10 μM)
same,"A2: inhibition of radioligand binding, human κ-opioid (KOP)",[11]; [3H]-Diprenorphine,− (“−” indicates less than 50% inhibition at 10 μM)

# — patent publication US20080009418A1, “Selective Inhibitors” (Alchemia LTD., priority 2004, published 2008)
